In US20170246210A1, “EX-VIVO INDUCED REGULATORY MESENCHYMAL STEM CELLS OR MYELOID-DERIVED SUPPRESSOR CELLS AS IMMUNE MODULATORS” (HADASIT MEDICAL RESEARCH SERVICES & DEVELOPMENT LTD, priority 2014, published 2017):

What was measured:
[1] = system: mMSCs; experiment: FACS analysis of surface expression on mouse MSCs; format: cell-based; settings: for EGFR surface expression: kynurenine 5 hours, with/without 10 μM CH-223191 pre-treatment 16 hours; for MHC I expression: FACS
Experimental: (§1) TCT MSCs were treated with 40pM hTGFβ (PeproTech, Israel) for 24 h, and then with a cocktail of 40 pM hTGFβ, 100 ng/ml h/mIFNγ (PeproTech, Israel) and 150 μM Kynurenine (Sigma, Switzerland) for an additional 24 h before they were used for experiments.
(§2) FACS analysis. The phenotype of the MSCs was analyzed by FACS using anti-CD29-PB and anti-hCD45-FITC (Biolegend), anti-CD11b-APC, anti-CD44-PE and anti-mCD45-FITC (SouthernBiotech), anti-CD105-PB, anti-CD73-PE, anti-CD90-PE and anti-Sca1-PE (eBioscience), anti-CD44-V450, anti-CD105-APC, anti-HLA DR-APC and anti-HLA ABC-PE (BD Bioscience) antibodies. The expression level of PD-L1 in mMSCs was analyzed by FACS with anti-B7-H1-PE (PD-L1) (eBioscience). To analyze EGFR internalization in kynurenine treated mMSCs, mMSCs were cultured in the presence of 10 μM CH223191 (Merck-Millipore) for 16 hours and then kynurenine was added for an additional 5 hours. EGFR expression was analyzed by FACS using anti-EGFR-PE (Bioss). FACS was performed using the aMACSQuant analyzer (Miltenyi Biotech, Germany) and the data was analyzed using FCS Express V3 software.

[2] = system: mMSCs; experiment: qPCR expression analysis in treated mouse MSCs; format: cell-based; settings: for IL-6 mRNA expression: combination treatments, with/without 10 μM CH-223191; for COX2 mRNA expression: qPCR, combinations of TGFβ, IFNγ, kynurenine
Experimental: MSCs isolation and culture. Mouse MSCs (mMSCs) were obtained from the bone marrow (BM) of C57BL/6 mice. BM cells were cultured at a concentration of 1*10^6 cells/ml in Mesencult basal medium supplemented with MSC stimulatory supplements (StemCell Technologies, Vancouver, BC), at 37° C. with 10% CO2. After 2-3 passages, the cells were harvested and CD11b^+ cells were depleted by EasySep® cell separation kit (StemCell Technologies, Vancouver, BC). Cells from 3 different lines were used for experiments after 5-20 passages.
as §1
RNA extraction and PCR analysis. Total cellular RNA was extracted using RNeasy® Mini Kit columns (QIAGEN) according to the manufacturer's protocols. 1 μg of total RNA was used to synthesize cDNA using High-Capacity cDNA kit (Applied Biosystems) following the supplier's instructions. Detection of transcript levels of iNOS, IDO, COX2, IL-6, CYP1a1 and CYP1b1, were performed using the TaqMan Gene Expression Assay Kit (Applied Biosystems), using HPRT-1 as a reference. All primers were purchased from Applied Biosystems. Real-Time PCR reactions were conducted using StepOne Plus (Applied Biosystems). Data was analyzed by StepOne Software version 2.2 (Applied Biosystems). […]

[3] = target: T1, aryl hydrocarbon receptor (AhR) (Homo sapiens, UniProt P35869); experiment: AhR activation in human MSCs (qPCR of AhR dependent gene Cyp1a1); format: cell-based
T1 construct: Mouse and human MSCs were obtained from C57BL/6 mice and healthy donor BM respectively; endogenous in cells; host or cells: primary human MSCs from healthy donor bone marrow
T1 sequence (P35869 11-848): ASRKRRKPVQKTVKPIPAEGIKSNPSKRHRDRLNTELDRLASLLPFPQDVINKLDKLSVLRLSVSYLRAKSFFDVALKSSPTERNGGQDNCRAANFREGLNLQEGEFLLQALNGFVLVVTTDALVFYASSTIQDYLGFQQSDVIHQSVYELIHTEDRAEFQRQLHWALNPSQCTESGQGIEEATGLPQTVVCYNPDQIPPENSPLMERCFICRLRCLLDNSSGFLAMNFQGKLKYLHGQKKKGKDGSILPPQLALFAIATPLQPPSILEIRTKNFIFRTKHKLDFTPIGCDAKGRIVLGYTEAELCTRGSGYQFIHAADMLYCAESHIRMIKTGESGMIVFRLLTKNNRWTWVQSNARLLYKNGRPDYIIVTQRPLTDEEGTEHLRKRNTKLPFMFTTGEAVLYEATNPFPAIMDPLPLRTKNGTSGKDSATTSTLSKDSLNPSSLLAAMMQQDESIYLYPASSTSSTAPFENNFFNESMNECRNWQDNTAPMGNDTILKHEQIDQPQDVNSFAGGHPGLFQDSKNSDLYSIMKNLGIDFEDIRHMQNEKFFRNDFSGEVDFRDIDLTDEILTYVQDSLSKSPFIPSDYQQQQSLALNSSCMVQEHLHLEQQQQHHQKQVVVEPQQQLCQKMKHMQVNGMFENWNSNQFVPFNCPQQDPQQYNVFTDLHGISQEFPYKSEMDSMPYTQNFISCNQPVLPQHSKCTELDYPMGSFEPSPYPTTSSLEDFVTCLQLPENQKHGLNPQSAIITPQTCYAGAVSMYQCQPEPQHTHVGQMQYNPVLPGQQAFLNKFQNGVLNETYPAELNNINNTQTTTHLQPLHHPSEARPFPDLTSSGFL
Experimental: (§3) RNA extraction and PCR analysis. Total cellular RNA was extracted using RNeasy® Mini Kit columns (QIAGEN) according to the manufacturer's protocols. 1 μg of total RNA was used to synthesize cDNA using High-Capacity cDNA kit (Applied Biosystems) following the supplier's instructions. Detection of transcript levels of iNOS, IDO, COX2, IL-6, CYP1a1 and CYP1b1, were performed using the TaqMan Gene Expression Assay Kit (Applied Biosystems), using HPRT-1 as a reference. All primers were purchased from Applied Biosystems. Real-Time PCR reactions were conducted using StepOne Plus (Applied Biosystems). Data was analyzed by StepOne Software version 2.2 (Applied Biosystems).
(§4) To evaluate whether kynurenine activates AhR in mMSCs, the mRNA of treated/non-treated MSCs were tested for the expression level of two AhR dependent genes, Cyp1a1 and Cyp1b1. […] To ascertain that the up-regulation of these genes is AhR dependent, MSCs were treated with kynurenine for 24 hours in the presence/absence of the AhR antagonist CH-223191. The up-regulation of Cyp1a1 by kynurenine is inhibited in the presence of the antagonist both in mouse and human MSCs (previous FIGS. 9B, C).

[4] = target: T2, aryl hydrocarbon receptor (AhR) (Mus musculus, UniProt P30561); experiment: AhR activation in mouse MSCs (qPCR of AhR dependent genes Cyp1a1, Cyp1b1); format: cell-based
T2 construct: Mouse and human MSCs were obtained from C57BL/6 mice and healthy donor BM respectively; endogenous in cells; host or cells: primary mouse MSCs from C57BL/6 mice
T2 sequence (P30561 10-805 limits assumed): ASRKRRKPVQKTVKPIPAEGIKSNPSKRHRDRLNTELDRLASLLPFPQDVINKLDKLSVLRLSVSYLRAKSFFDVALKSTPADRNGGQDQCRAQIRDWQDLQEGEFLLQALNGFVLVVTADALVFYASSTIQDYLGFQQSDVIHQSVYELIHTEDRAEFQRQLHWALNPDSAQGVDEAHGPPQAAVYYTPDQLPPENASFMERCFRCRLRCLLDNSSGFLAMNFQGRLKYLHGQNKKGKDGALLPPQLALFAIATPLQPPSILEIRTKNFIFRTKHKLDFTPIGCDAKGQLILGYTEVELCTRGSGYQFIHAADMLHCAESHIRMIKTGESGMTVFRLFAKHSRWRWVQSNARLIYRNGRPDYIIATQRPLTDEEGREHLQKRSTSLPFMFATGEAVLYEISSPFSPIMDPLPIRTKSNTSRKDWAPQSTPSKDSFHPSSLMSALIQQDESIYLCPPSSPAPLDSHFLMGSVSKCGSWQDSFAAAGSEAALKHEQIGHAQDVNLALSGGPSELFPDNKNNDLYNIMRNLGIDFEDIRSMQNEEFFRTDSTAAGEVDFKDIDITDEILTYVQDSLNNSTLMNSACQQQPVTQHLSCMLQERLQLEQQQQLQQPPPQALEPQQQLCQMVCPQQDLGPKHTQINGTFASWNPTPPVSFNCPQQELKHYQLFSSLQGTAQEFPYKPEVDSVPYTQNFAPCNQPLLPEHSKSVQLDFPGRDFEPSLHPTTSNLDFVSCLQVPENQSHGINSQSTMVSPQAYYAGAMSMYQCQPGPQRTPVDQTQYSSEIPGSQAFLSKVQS
Experimental: as §3, §4

[5] = system: hMSCs; experiment: qPCR expression analysis in treated human MSCs; format: cell-based; settings: for upregulation of COX2 by kynurenine: human MSCs, presence or absence of 10 μM CH-223191
Experimental: Human MSCs (hMSCs). Bone marrow for hMHC was obtained from 17 adult healthy donors, males and females, following informed consent and under institutional Helsinki approval; hMSCs were cultured as previously described and the cells were used for experiments after 3-6 passages (Resnick, Barkats et al. 2013). TCT MSCs were treated with 40pM hTGFβ (PeproTech, Israel) for 24 h, and then with a cocktail of 40 pM hTGFβ, 100 ng/ml h/mIFNγ (PeproTech, Israel) and 150 μM Kynurenine (Sigma, Switzerland) for an additional 24 h before they were used for experiments. RNA extraction and PCR analysis. Total cellular RNA was extracted using RNeasy® Mini Kit columns (QIAGEN) according to the manufacturer's protocols. 1 μg of total RNA was used to synthesize cDNA using High-Capacity cDNA kit (Applied Biosystems) following the supplier's instructions. Detection of transcript levels of iNOS, IDO, COX2, IL-6, CYP1a1 and CYP1b1, were performed using the TaqMan Gene Expression Assay Kit (Applied Biosystems), using HPRT-1 as a reference. All primers were purchased from Applied Biosystems. Real-Time PCR reactions were conducted using StepOne Plus (Applied Biosystems). Data was analyzed by StepOne Software version 2.2 (Applied Biosystems).

[6] = system: mMSCs; experiment: ELISA on supernatants of treated mMSCs; format: cell-based, mouse
Experimental: ELISA. Quantification of PGE2 in supernatants collected from treated mMSCs and from co-cultures with splenocytes after 72 hours of culture, was performed by competitive enzyme-linked immunosorbent assay (ELISA) technique using a commercially available ELISA kit (R&D Systems, Minn., USA). IL-6, IL-17A and IFNγ in supernatants collected from treated mMSCs and/or from co-cultures with splenocytes/PBMCs were quantified using the ELISA Ready SET Go kits (eBioscience, San Diego, Calif., USA), according to the manufacturer's instructions. All determinations were made in triplicates.

[7] = system: hMSCs; experiment: FACS analysis of surface expression on human MSCs; format: cell-based; settings: IFNγ induced
Experimental: as §1, §2

[8] = mouse MSCs, presence or absence of 10 μM CH-223191
[9] = kynurenine 24 hours, 10 μM CH-223191
[10] = murine MSCs, kynurenine alone vs non-treated

With `Cc1ccccc1N=Nc1ccc(NC(=O)c2ccnn2C)c(C)c1` [CH-223191] the EGFR surface expression [1] was “restored EGFR expression on the cell surface”, the “IL-6 mRNA expression” value ([2]; mMSCs) was “partially reversed the effects of kynurenine” and the “enhanced expression of LIF” value [2, 8] was “reversed”. For the same compound, the “upregulation of COX2 by kynurenine” value [2, 8] was “reversed”, the “up-regulation of Cyp1a1 by kynurenine in presence of antagonist” value [3, 9] was “inhibited” and the “up-regulation of Cyp1a1 by kynurenine in presence of antagonist” value [4, 9] was “inhibited”. For the same compound, the “upregulation of COX2 by kynurenine” value [5] was “reversed”.
With `Nc1ccccc1C(=O)CC(N)C(=O)O` (stereo not shown) [kynurenine] the EGFR surface expression [1] was “significantly reduced”, the “IL-6 mRNA expression” value ([2]; mMSCs) was “restricted this elevation” and the “HO-1 mRNA expression” value ([2]; mMSCs, kynurenine added to the DCT) was “significantly up-regulated”. For the same compound, the “COX2 mRNA expression” value ([2]; mMSCs) was “significant additive effects on the up-regulation”, the “upregulation of COX2 by kynurenine” value [2, 8] was “AhR dependent” and the COX2 expression [2, 10] was “no effect”. For the same compound, the IDO expression [2, 10] was “no effect”, the IL6 expression [2, 10] was “no effect” and the iNOS expression [2, 10] was “no effect”. For the same compound, the AhR activation [3] was “activates”, the AhR activation [4] was “activates” and the IL-6 secretion ([6]; mMSCs culture medium) was “restricted this elevation”. The “COX2 mRNA expression” value ([5]; hMSCs, addition of kynurenine) was “significantly elevated” and the “upregulation of COX2 by kynurenine” value [5] was “AhR dependent”.
IFNγ was tested, and the “MHC I expression” value [1] was “induces up-regulation”, the “COX2 mRNA expression” value ([2]; mMSCs) was “no effect” and the PGE2 secretion ([6]; mMSCs supernatants) was “no effect”.
In the case of TGFβ, the “MHC I expression” value [1] is reported as “reduced the elevated expression”, the “COX2 mRNA expression” value ([2]; mMSCs) is reported as “increased” and the “MHC I expression” value [7] is reported as “reduced the IFNγ induced expression”. For the same compound, the “MHC II expression” value [7] was “reduced the IFNγ induced expression”.
